Assay results as given in patent publication US20190159450A1, “PYRIDINE-BASED COMPOUND INCLUDING ISOXAZOLINE RING AND USE THEREOF AS HERBICIDE” (MOGHU RESEARCH CENTER LTD., priority 2016, published 2019).

Key:
Format in all cases: in vivo
wheat [1] = experiment: Herbicidal activity test, pre-weeds emergence treatment (crop damage); details: assessed 2 to 3 weeks after spraying, scale 0-10 (0: no effect, 10: complete death)
Experimental: (§1) A rectangular plastic pot with a surface area of 300 cm^2 was filled with sandy loam soil and mixed soil at a ratio of 1:1, and four kinds of weeds including Quamoclit pennata, Abutilon theophrasti Medicus, and Aeschynomene indica, Xanthium strumarium were sown therein. In another pot made in the same way, three kinds of crop seeds including maize, wheat, and rice were sown. The pots were watered and one day later, a medicament was sprayed thereon. The spraying was performed by using a track sprayer (R&D Sprayer, USA) equipped with Teejet 8002EVS (Spraying Systems Co., USA) nozzle, and the spray amount was controlled to be 1000 L/ha. A spray solution was prepared by dissolving the compound of each example or a control material in acetone, and then, adding the same amount of 0.1% (v/v) tween 20 aqueous solution thereto. The spray amount was 200 g/ha. The pots were placed in a greenhouse in which the temperature was maintained at 25° C. to 30° C. during the day and 15° C. to 25° C. during the night, and was regularly watered. After 2 to 3 weeks from the spraying of the compounds or the control material, the efficacy and the damages on each weed and each crop were assessed according to the scale of 0-10 (0: no effect, 10: complete death) scale and the results are shown in Table 3 below.
(§2) Pots for crops and weeds were prepared in the same manner as the test method illustrated in Table 3, and three kinds of weeds selected from Quamoclit pennata, Abutilon theophrasti Medicus, and Aeschynomene indica, Xanthium strumarium were used.

maize [2] = experiment: as above; details: assessed 2 to 3 weeks after spraying, scale 0-10 (0: no effect, 10: complete death)
Experimental: as §1, §2

rice [3] = experiment: as above; details: assessed 2 to 3 weeks after spraying, scale 0-10 (0: no effect, 10: complete death)
Experimental: as §1, §2

[4] = test system: Abutilon theophrasti Medicus; experiment: Herbicidal activity test, pre-weeds emergence treatment; details: assessed 2 to 3 weeks after spraying, scale 0-10 (0: no effect, 10: complete death)
Experimental: as §1, §2

Aeschynomene indica [5] = experiment: as above; details: assessed 2 to 3 weeks after spraying, scale 0-10 (0: no effect, 10: complete death)
Experimental: as §1, §2

Quamoclit pennata [6] = experiment: as above; details: assessed 2 to 3 weeks after spraying, scale 0-10 (0: no effect, 10: complete death)
Experimental: as §1, §2

Xanthium strumarium [7] = experiment: as above; details: assessed 2 to 3 weeks after spraying, scale 0-10 (0: no effect, 10: complete death)
Experimental: as §1, §2

[8] = test system: Abutilon theophrasti Medicus; experiment: Herbicidal activity test, post-weeds emergence treatment; details: assessed after 2 to 3 weeks, 0: no effect, 10: complete death
Experimental: as §1
(§3) Pots for crops and weeds were prepared in the same manner as in Experimental Example 1, and then, when the crops and the weeds were raised up to 2 weeks roughly on a third-leaf stage, the compounds and the control material were sprayed thereon in the same manner as described above. The spray amount was 200 g/ha. After 2 to 3 weeks from the spraying of the test substance or the control substance, the efficacy and the damages on each weed and each crop were assessed according to the scale of 0-10 (0: no effect, 10: complete death) scale.
(§4) Pots for crops and weeds were prepared in the same manner as the test method illustrated in Table 5, and four kinds of weeds selected from Quamoclit pennata, Abutilon theophrasti Medicus, and Aeschynomene indica, Xanthium strumarium were used. The spray amount was 200 g/ha for crops and 50 g/ha for weeds.

Aeschynomene indica [9] = experiment: as above; details: assessed after 2 to 3 weeks, 0: no effect, 10: complete death
Experimental: as §1, §3, §4

Quamoclit pennata [10] = experiment: as above; details: assessed after 2 to 3 weeks, 0: no effect, 10: complete death
Experimental: as §1, §3, §4

Xanthium strumarium [11] = experiment: as above; details: assessed after 2 to 3 weeks, 0: no effect, 10: complete death
Experimental: as §1, §3, §4

wheat [12] = experiment: Herbicidal activity test, post-weeds emergence treatment (crop damage); details: assessed after 2 to 3 weeks, 0: no effect, 10: complete death
Experimental: as §1, §3, §4

maize [13] = experiment: as above; details: assessed after 2 to 3 weeks, 0: no effect, 10: complete death
Experimental: as §1, §3, §4

rice [14] = experiment: as above; details: assessed after 2 to 3 weeks, 0: no effect, 10: complete death
Experimental: as §1, §3, §4

[15] = spray amount 50 g/ha for weeds, Table 6
[16] = spray amount 200 g/ha for crops, Table 6

SMILES | PRE TRZAW (wheat), damage score (wheat [1]; Table 4, 200 g/ha) | PRE ZEAMX (maize), damage score (maize [2]; Table 4, 200 g/ha) | PRE ORYSA (rice), damage score (rice [3]; Table 4, 200 g/ha) | PRE ABUTH (Abutilon theophrasti Medicus), efficacy score ([4]; Table 4, 200 g/ha) | PRE AESIN (Aeschynomene indica), efficacy score (Aeschynomene indica [5]; Table 4, 200 g/ha) | PRE IPOAN (Quamoclit pennata), efficacy score (Quamoclit pennata [6]; Table 4, 200 g/ha) | PRE XANST (Xanthium strumarium), efficacy score (Xanthium strumarium [7]; Table 4, 200 g/ha) | ABUTH (Abutilon theophrasti Medicus) herbicidal efficacy, scale of 0-10 [8, 15] | AESIN (Aeschynomene indica) herbicidal efficacy, scale of 0-10 (Aeschynomene indica [9]; [15]) | IPOAN (Quamoclit pennata) herbicidal efficacy, scale of 0-10 (Quamoclit pennata [10]; [15]) | XANST (Xanthium strumarium) herbicidal efficacy, scale of 0-10 (Xanthium strumarium [11]; [15]) | TRZAW (wheat) damage, scale of 0-10 (wheat [12]; [16]) | ZEAMX (maize) damage, scale of 0-10 (maize [13]; [16]) | ORYSA (rice) damage, scale of 0-10 (rice [14]; [16]) | PRE TRZAW (wheat), damage score (wheat [1]; Table 3, 200 g/ha) | PRE ZEAMX (maize), damage score (maize [2]; Table 3, 200 g/ha) | PRE ORYSA (rice), damage score (rice [3]; Table 3, 200 g/ha) | PRE ABUTH (Abutilon theophrasti Medicus), efficacy score ([4]; Table 3, 200 g/ha) | PRE AESIN (Aeschynomene indica), efficacy score (Aeschynomene indica [5]; Table 3, 200 g/ha) | PRE IPOAN (Quamoclit pennata), efficacy score (Quamoclit pennata [6]; Table 3, 200 g/ha) | further results
Cc1ccc(COC(=O)c2nc(C3CC(Br)=NO3)cc(N)c2Cl)cc1 (stereo not shown) [Compound 87, 4-methylbenzyl 4-amino-6-(3-bromo-4,5-dihydroisoxazol-5-yl)-3-chloropicolinate] | 0 | 0 | 0 | 6 | 9 | 7 | 5 | 6 | 9 | 4 | 10 | 0 | 1 | 0 |  |  |  |  |  |  | 
COC(=O)c1nc(C2CC(C(F)(F)F)=NO2)cc(NC(C)=O)c1Cl (stereo not shown) [Compound 4, methyl 4-acetamido-3-chloro-6-(3-(trifluoromethyl)-4,5-dihydroisoxazol-5-yl)picolinate] |  |  |  |  |  |  |  |  |  |  |  |  |  |  | 0 | 0 | 0 | 6 | 8 | 7 | PRE XANST (Xanthium strumarium), efficacy score (Xanthium strumarium [7]; Table 3, 200 g/ha): 6; ABUTH (Abutilon theophrasti Medicus) herbicidal efficacy, scale of 0-10 ([8]; spray amount 200 g/ha, Table 5): 3; AESIN (Aeschynomene indica) herbicidal efficacy, scale of 0-10 (Aeschynomene indica [9]; spray amount 200 g/ha, Table 5): 10; IPOAN (Quamoclit pennata) herbicidal efficacy, scale of 0-10 (Quamoclit pennata [10]; spray amount 200 g/ha, Table 5): 3; XANST (Xanthium strumarium) herbicidal efficacy, scale of 0-10 (Xanthium strumarium [11]; spray amount 200 g/ha, Table 5): 8; TRZAW (wheat) damage, scale of 0-10 (wheat [12]; spray amount 200 g/ha, Table 5): 0; ZEAMX (maize) damage, scale of 0-10 (maize [13]; spray amount 200 g/ha, Table 5): 0; ORYSA (rice) damage, scale of 0-10 (rice [14]; spray amount 200 g/ha, Table 5): 0
Nc1cc(C2CC(Cl)=NO2)nc(C(=O)Oc2ccccc2)c1Cl (stereo not shown) [Compound 94, phenyl 4-amino-3-chloro-6-(3-chloro-4,5-dihydroisoxazol-5-yl)picolinate] | 0 | 2 | 7 | 10 | 10 | 10 | 10 | 10 | 10 | 8 | 10 | 0 | 0 | 3 |  |  |  |  |  |  | 
COC(=O)c1nc(C2CC(C(F)(F)F)=NO2)cc(N)c1Cl (stereo not shown) [Compound 39, methyl 4-amino-3-chloro-6-(3-trifluoromethyl-4,5-dihydroisoxazol-5-yl)picolinate] |  |  |  |  |  |  |  |  |  |  |  |  |  |  | 0 | 0 | 1 | 4 | 8 | 6 | PRE XANST (Xanthium strumarium), efficacy score (Xanthium strumarium [7]; Table 3, 200 g/ha): 6; ABUTH (Abutilon theophrasti Medicus) herbicidal efficacy, scale of 0-10 ([8]; spray amount 200 g/ha, Table 5): 3; AESIN (Aeschynomene indica) herbicidal efficacy, scale of 0-10 (Aeschynomene indica [9]; spray amount 200 g/ha, Table 5): 10; IPOAN (Quamoclit pennata) herbicidal efficacy, scale of 0-10 (Quamoclit pennata [10]; spray amount 200 g/ha, Table 5): 4; XANST (Xanthium strumarium) herbicidal efficacy, scale of 0-10 (Xanthium strumarium [11]; spray amount 200 g/ha, Table 5): 10; TRZAW (wheat) damage, scale of 0-10 (wheat [12]; spray amount 200 g/ha, Table 5): 0; ZEAMX (maize) damage, scale of 0-10 (maize [13]; spray amount 200 g/ha, Table 5): 0; ORYSA (rice) damage, scale of 0-10 (rice [14]; spray amount 200 g/ha, Table 5): 0
COC(=O)c1nc(C2CC(Cl)=NO2)cc(N)c1Cl (stereo not shown) [Compound 37, methyl 4-amino-3-chloro-6-(3-chloro-4,5-dihydroisoxazol-5-yl)picolinate] | 0 | 0 | 1 | 10 | 10 | 7 | 10 | 10 | 10 | 8 | 10 | 0 | 0 | 0 | 0 | 0 | 0 | 10 | 10 | 10 | PRE XANST (Xanthium strumarium), efficacy score (Xanthium strumarium [7]; Table 3, 200 g/ha): 10; ABUTH (Abutilon theophrasti Medicus) herbicidal efficacy, scale of 0-10 ([8]; spray amount 200 g/ha, Table 5): 10; AESIN (Aeschynomene indica) herbicidal efficacy, scale of 0-10 (Aeschynomene indica [9]; spray amount 200 g/ha, Table 5): 10; IPOAN (Quamoclit pennata) herbicidal efficacy, scale of 0-10 (Quamoclit pennata [10]; spray amount 200 g/ha, Table 5): 8; XANST (Xanthium strumarium) herbicidal efficacy, scale of 0-10 (Xanthium strumarium [11]; spray amount 200 g/ha, Table 5): 10; TRZAW (wheat) damage, scale of 0-10 (wheat [12]; spray amount 200 g/ha, Table 5): 1; ZEAMX (maize) damage, scale of 0-10 (maize [13]; spray amount 200 g/ha, Table 5): 0; ORYSA (rice) damage, scale of 0-10 (rice [14]; spray amount 200 g/ha, Table 5): 1
CC(C)OC(=O)c1nc(C2CC(Br)=NO2)cc(N)c1Cl (stereo not shown) [Compound 83, isopropyl 4-amino-6-(3-bromo-4,5-dihydroisoxazol-5-yl)-3-chloropicolinate] | 0 | 0 | 0 | 0 | 5 | 5 | 2 | 4 | 5 | 5 | 7 | 0 | 0 | 0 |  |  |  |  |  |  | 
COC(=O)c1nc(C2CC(Br)=NO2)cc(NC(C)=O)c1Cl (stereo not shown) [Compound 3, methyl 4-acetamido-3-chloro-6-(3-bromo-4,5-dihydroisoxazol-5-yl)picolinate] |  |  |  |  |  |  |  |  |  |  |  |  |  |  | 0 | 0 | 0 | 10 | 10 | 8 | PRE XANST (Xanthium strumarium), efficacy score (Xanthium strumarium [7]; Table 3, 200 g/ha): 8; ABUTH (Abutilon theophrasti Medicus) herbicidal efficacy, scale of 0-10 ([8]; spray amount 200 g/ha, Table 5): 3; AESIN (Aeschynomene indica) herbicidal efficacy, scale of 0-10 (Aeschynomene indica [9]; spray amount 200 g/ha, Table 5): 10; IPOAN (Quamoclit pennata) herbicidal efficacy, scale of 0-10 (Quamoclit pennata [10]; spray amount 200 g/ha, Table 5): 6; XANST (Xanthium strumarium) herbicidal efficacy, scale of 0-10 (Xanthium strumarium [11]; spray amount 200 g/ha, Table 5): 10; TRZAW (wheat) damage, scale of 0-10 (wheat [12]; spray amount 200 g/ha, Table 5): 0; ZEAMX (maize) damage, scale of 0-10 (maize [13]; spray amount 200 g/ha, Table 5): 0; ORYSA (rice) damage, scale of 0-10 (rice [14]; spray amount 200 g/ha, Table 5): 0
